Experimental data reported in ChEMBL document CHEMBL3867474, “Discovery of novel pyrrolidineoxy-substituted heteroaromatics as potent and selective PI3K delta inhibitors with improved physicochemical properties” (Bioorg Med Chem Lett, 2016).
Converted amounts (≈) assume the structure as drawn.

How the values were obtained:
[1] = Solubility of the compound at pH 6.8 by high-throughput equilibrium analysis; type: physicochemical; conditions: buffer
[2] = Lipophilicity, log P of the compound by high-throughput assay; type: physicochemical; conditions: octanol/water
[3] = target: T1, Phosphatidylinositol 4,5-bisphosphate 3-kinase catalytic subunit delta isoform (Homo sapiens) (UniProt O00329); assay: Selectivity ratio of IC50 for myristoylated PI3K-delta (unknown origin) overexpressed in Rat1 cells to IC50 for PI3K-delta (unknown origin); type: cell-based
T1 sequence (whole entry): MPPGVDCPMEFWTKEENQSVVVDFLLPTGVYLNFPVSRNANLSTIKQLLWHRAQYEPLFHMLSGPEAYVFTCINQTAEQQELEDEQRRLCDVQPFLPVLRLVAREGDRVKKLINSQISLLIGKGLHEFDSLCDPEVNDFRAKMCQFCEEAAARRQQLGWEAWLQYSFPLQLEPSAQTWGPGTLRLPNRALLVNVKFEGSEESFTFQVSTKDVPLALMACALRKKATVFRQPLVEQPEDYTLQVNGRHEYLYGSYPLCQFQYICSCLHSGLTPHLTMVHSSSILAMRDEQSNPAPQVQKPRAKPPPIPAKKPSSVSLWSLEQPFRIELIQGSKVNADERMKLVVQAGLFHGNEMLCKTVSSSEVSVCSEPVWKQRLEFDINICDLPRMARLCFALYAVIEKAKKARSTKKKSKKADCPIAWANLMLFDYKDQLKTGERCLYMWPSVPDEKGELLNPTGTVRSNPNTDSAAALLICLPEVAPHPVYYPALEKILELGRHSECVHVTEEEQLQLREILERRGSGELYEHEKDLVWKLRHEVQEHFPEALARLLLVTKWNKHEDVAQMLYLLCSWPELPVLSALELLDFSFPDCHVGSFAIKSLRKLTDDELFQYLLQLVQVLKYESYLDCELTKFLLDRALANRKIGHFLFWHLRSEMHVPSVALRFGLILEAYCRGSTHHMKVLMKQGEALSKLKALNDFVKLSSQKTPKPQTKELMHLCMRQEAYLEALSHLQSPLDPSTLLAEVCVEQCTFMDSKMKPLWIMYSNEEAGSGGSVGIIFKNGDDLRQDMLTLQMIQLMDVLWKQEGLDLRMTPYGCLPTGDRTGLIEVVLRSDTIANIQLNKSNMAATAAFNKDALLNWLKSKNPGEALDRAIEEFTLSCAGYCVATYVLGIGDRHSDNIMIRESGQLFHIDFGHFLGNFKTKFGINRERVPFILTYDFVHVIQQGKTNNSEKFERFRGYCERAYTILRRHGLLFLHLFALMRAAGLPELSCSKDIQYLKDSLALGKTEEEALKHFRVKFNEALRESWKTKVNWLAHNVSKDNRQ

[4] = target: T2, Phosphatidylinositol 4,5-bisphosphate 3-kinase catalytic subunit beta isoform (Homo sapiens, UniProt P42338); assay: Inhibition of PI3K-beta (unknown origin) by KinaseGlo assay
T2 sequence (P42338 whole entry, canonical isoform): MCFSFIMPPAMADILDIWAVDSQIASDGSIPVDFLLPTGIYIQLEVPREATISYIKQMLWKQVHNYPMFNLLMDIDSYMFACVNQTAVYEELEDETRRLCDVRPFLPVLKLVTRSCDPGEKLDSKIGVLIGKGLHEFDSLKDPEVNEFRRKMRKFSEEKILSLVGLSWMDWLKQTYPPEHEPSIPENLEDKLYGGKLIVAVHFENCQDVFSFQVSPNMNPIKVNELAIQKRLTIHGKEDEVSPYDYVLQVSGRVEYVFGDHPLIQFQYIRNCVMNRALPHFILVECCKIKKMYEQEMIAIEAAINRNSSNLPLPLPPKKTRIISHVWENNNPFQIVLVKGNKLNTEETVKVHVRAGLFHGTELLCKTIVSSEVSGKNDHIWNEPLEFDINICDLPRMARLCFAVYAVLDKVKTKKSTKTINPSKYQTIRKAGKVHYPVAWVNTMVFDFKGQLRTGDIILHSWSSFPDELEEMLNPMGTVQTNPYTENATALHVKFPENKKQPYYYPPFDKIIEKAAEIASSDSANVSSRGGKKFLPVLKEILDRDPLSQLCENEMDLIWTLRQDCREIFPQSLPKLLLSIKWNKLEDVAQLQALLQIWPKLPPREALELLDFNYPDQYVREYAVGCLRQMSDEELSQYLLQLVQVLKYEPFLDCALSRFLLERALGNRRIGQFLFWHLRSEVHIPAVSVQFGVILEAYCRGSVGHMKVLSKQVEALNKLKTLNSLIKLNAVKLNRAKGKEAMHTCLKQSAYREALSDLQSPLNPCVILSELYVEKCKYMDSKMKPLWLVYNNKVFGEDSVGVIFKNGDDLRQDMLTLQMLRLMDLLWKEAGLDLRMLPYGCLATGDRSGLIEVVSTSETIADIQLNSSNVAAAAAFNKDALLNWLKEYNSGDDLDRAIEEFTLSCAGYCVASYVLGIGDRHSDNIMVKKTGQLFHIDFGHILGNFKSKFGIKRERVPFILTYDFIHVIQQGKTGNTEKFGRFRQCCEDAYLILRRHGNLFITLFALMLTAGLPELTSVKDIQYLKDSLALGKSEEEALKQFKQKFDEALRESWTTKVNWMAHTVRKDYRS

[5] = target: T3, Phosphatidylinositol 4,5-bisphosphate 3-kinase catalytic subunit alpha isoform (Homo sapiens, UniProt P42336); assay: Inhibition of myristoylated PI3K-alpha (unknown origin) overexpressed in Rat1 cells assessed as inhibition of Akt phosphorylation; type: cell-based
T3 sequence (P42336 whole entry, canonical isoform): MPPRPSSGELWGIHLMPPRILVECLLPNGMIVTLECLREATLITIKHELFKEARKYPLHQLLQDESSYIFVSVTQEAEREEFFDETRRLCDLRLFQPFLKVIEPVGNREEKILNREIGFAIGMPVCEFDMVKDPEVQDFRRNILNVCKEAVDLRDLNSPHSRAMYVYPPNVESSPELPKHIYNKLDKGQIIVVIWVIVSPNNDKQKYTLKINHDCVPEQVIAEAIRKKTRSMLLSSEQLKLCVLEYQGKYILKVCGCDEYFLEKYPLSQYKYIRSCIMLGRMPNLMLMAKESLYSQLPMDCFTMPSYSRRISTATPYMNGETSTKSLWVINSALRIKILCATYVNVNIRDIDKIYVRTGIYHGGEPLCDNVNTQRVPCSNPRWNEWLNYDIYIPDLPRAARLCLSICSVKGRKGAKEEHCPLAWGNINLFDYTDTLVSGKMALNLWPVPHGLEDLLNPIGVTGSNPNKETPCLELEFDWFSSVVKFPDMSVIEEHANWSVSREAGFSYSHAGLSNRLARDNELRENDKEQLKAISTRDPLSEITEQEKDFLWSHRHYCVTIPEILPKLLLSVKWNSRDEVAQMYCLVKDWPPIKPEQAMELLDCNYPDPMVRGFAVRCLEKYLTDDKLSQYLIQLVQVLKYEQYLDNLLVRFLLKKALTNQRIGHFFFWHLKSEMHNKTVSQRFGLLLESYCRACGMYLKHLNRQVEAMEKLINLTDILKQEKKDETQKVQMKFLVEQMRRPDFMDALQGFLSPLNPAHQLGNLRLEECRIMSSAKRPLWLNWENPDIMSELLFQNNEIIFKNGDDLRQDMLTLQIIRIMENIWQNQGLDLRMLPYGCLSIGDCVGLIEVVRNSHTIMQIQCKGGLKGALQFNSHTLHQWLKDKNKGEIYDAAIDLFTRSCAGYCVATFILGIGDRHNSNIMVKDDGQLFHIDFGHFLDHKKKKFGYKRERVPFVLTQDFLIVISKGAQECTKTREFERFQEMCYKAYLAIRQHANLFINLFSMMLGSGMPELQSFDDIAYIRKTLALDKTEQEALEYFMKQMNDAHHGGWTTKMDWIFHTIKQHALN

[6] = target: Phosphatidylinositol 4,5-bisphosphate 3-kinase catalytic subunit gamma isoform (Homo sapiens, UniProt P48736); assay: Inhibition of PI3K-gamma (unknown origin) by KinaseGlo assay
Chain of Phosphatidylinositol 4,5-bisphosphate 3-kinase catalytic subunit gamma isoform (P48736 whole entry, canonical isoform): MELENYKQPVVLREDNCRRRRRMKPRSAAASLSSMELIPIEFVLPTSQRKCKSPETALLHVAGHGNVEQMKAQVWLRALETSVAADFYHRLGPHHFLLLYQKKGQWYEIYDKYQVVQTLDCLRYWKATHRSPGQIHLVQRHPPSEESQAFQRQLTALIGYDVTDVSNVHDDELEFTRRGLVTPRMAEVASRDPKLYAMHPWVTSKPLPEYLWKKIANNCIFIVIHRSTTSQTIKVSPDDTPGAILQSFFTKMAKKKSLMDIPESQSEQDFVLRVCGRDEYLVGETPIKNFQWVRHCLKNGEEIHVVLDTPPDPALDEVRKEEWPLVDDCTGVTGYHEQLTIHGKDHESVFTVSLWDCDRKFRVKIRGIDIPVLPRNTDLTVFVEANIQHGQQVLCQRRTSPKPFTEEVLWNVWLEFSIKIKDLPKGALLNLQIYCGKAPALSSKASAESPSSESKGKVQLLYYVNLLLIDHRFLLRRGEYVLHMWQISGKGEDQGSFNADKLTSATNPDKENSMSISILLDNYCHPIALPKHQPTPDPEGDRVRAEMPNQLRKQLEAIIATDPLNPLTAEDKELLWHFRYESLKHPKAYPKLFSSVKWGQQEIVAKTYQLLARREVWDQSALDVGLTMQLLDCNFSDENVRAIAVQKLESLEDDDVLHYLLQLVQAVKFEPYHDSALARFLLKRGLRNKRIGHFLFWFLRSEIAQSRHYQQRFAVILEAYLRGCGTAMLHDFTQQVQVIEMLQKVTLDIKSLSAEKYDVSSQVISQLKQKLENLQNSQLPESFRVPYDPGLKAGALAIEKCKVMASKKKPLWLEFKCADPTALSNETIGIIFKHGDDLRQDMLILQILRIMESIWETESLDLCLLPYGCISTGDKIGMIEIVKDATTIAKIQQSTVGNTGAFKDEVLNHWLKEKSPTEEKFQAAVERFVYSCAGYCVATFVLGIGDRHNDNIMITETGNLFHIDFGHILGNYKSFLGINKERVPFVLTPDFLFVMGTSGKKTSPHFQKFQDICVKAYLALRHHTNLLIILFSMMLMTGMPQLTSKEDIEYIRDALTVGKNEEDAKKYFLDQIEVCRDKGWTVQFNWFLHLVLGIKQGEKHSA

[7] = target: T2, Phosphatidylinositol 4,5-bisphosphate 3-kinase catalytic subunit beta isoform; assay: Inhibition of myristoylated PI3K-beta (unknown origin) overexpressed in Rat1 cells assessed as inhibition of Akt phosphorylation; type: cell-based
[8] = target: T3, Phosphatidylinositol 4,5-bisphosphate 3-kinase catalytic subunit alpha isoform; assay: Inhibition of PI3K-alpha (unknown origin) by KinaseGlo assay
[9] = target: T4, Phosphatidylinositol 4,5-bisphosphate 3-kinase catalytic subunit delta isoform (Homo sapiens, UniProt O00329); assay: Inhibition of PI3K-delta (unknown origin) by KinaseGlo assay
T4 sequence (O00329 whole entry): T1 sequence (whole entry)

[10] = target: T4, Phosphatidylinositol 4,5-bisphosphate 3-kinase catalytic subunit delta isoform; assay: Inhibition of myristoylated PI3K-delta (unknown origin) overexpressed in Rat1 cells assessed as inhibition of Akt phosphorylation; type: cell-based
[11] = target: T5, Phosphatidylinositol 4,5-bisphosphate 3-kinase catalytic subunit delta isoform (Mus musculus, UniProt O35904); assay: Inhibition of PI3K-delta in mouse splenocytes assessed as inhibition anti-IgM induced CD86 expression; type: cell-based
T5 sequence (O35904 whole entry): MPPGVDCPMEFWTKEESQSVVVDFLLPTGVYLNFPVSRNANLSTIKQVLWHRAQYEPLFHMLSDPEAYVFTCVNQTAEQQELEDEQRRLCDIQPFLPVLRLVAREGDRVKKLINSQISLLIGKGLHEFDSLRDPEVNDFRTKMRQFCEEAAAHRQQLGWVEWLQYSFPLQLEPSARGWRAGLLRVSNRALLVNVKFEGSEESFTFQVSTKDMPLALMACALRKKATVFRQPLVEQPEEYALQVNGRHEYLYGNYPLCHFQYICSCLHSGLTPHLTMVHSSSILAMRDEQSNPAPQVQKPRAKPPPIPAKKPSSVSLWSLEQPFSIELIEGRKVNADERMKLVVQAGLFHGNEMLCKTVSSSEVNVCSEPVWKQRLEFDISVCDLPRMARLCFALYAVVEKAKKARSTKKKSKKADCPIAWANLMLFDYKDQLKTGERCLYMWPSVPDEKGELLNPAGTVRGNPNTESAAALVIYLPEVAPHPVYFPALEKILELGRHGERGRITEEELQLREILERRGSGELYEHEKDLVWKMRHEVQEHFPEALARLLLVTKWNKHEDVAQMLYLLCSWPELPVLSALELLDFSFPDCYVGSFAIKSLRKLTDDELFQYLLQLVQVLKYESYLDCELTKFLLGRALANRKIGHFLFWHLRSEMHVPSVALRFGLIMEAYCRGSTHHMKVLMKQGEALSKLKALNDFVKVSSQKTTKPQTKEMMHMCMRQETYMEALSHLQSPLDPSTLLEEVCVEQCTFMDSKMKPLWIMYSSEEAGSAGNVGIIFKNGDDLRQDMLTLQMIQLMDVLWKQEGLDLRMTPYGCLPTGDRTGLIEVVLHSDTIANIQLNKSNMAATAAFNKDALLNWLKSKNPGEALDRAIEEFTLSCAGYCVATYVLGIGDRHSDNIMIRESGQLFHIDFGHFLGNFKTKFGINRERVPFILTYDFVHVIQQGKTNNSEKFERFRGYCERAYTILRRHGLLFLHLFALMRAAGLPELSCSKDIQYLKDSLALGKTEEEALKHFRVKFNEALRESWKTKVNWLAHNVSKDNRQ

[12] = Inhibition of PI3K-delta in rat whole blood assessed as inhibition of anti-IgM/IL4 induced CD86 expression; type: tissue-based
Rat1 = assay: Selectivity ratio of IC50 for PI3K-delta in rat whole blood to IC50 for myristoylated PI3K-delta (unknown origin) overexpressed in Rat1 cells; type: cell-based

| Compound | solubility thermodynamic [1] | logP [2] | Ratio IC50 [3] | IC50 [4] | IC50 [5] | IC50 [6] | IC50 [7] | IC50 [8] | IC50 [9] | IC50 [10] | IC50 [11] | IC50 [12] | Ratio IC50 (Rat1) |
| --- | --- | --- | --- | --- | --- | --- | --- | --- | --- | --- | --- | --- | --- |
| COc1ccc(-c2ccc3ncnc(O[C@@H]4CCN(C(=O)OC(C)(C)C)C4)c3c2)cc1OC | 6 µM (≈ 2.71 µg/mL) | 4.9 |  | 3.88 µM |  | 0.642 µM |  | 0.693 µM | 0.256 µM |  |  |  |  |
| CCC(=O)N1CC[C@H](Oc2cnc3ccc(-c4ccc(OC)c(OC)c4)cc3n2)C1 | 80 µM (≈ 32.6 µg/mL) | 3.7 |  | > 9.1 µM |  | 3.78 µM |  | 3.23 µM | 0.488 µM |  |  |  |  |
| COc1ccc(-c2ccc3ncnc(-c4cccc(C(=O)N5CCN(C(C)=O)CC5)c4)c3c2)cc1OC | 610 µM (≈ 303 µg/mL) |  |  |  |  |  |  |  |  |  |  |  |  |
| COc1ccc(-c2ccc3ncnc(O[C@@H]4CCN(C)C4)c3c2)cc1OC | > 1000 µM | 3.6 |  | 1.94 µM |  | 2.07 µM |  | 0.842 µM | 0.11 µM |  |  |  |  |
| CCC(=O)N1CC[C@H](Oc2ccnc3ccc(-c4ccc(OC)nc4)nc23)C1 | > 1000 µM | 2.2 | 29 | 1.03 µM | 2.36 µM | 2.94 µM | 3.21 µM | 0.424 µM | 0.022 µM | 0.646 µM |  |  |  |
| COc1ccc(-c2ccc3ncnc(O[C@H]4CCN(C)C4)c3c2)cc1OC | > 1000 µM | 3.6 |  | 1.48 µM |  | 1.21 µM |  | 0.888 µM | 0.13 µM |  |  |  |  |
| COc1ccc(-c2ccc3ncnc(O[C@@H]4CCN(C(C)=O)C4)c3c2)cc1OC | > 1000 µM | 2.4 |  | 1.79 µM |  | 1.23 µM |  | 0.676 µM | 0.146 µM |  |  |  |  |
| CCC(=O)N1CC[C@H](Oc2cnnc3ccc(-c4ccc(OC)nc4)cc23)C1 | 370 µM (≈ 140 µg/mL) | 2.8 | 13 | 9.01 µM | > 10 µM | > 9.1 µM | > 10 µM | 5.08 µM | 0.188 µM | 2.84 µM |  |  |  |

Continued by falling IC50 [4], values first:

| solubility thermodynamic [1] | logP [2] | Ratio IC50 [3] | IC50 [4] | IC50 [5] | IC50 [6] | IC50 [7] | IC50 [8] | IC50 [9] | IC50 [10] | IC50 [11] | IC50 [12] | Compound | Ratio IC50 (Rat1) |
| --- | --- | --- | --- | --- | --- | --- | --- | --- | --- | --- | --- | --- | --- |
| 9 µM (≈ 4.06 µg/mL) | 5.3 | 4 | 0.956 µM | 0.262 µM | 0.282 µM | 1.52 µM | 0.148 µM | 0.01 µM | 0.044 µM |  |  | COc1ccc(-c2ccc3ncnc(O[C@H]4CCN(C(=O)OC(C)(C)C)C4)c3c2)cc1OC |  |
| 40 µM (≈ 16.3 µg/mL) | 3.8 | 5 | 0.86 µM | 1.86 µM | 0.366 µM | 2.13 µM | 0.491 µM | 0.015 µM | 0.072 µM | 0.085 µM | 0.282 µM | CCC(=O)N1CC[C@@H](Oc2cnc3ccc(-c4ccc(OC)c(OC)c4)cc3n2)C1 | 4 |
| > 1000 µM | 2.8 | 3 | 0.669 µM | 1.03 µM | 0.698 µM | 1.78 µM | 0.218 µM | 0.009 µM | 0.028 µM | 0.082 µM | 0.297 µM | CCC(=O)N1CC[C@H](Oc2ncnc3ccc(-c4ccc(OC)nc4)cc23)C1 | 11 |
| > 1000 µM | 3.4 | 15 | 0.655 µM | 0.606 µM | 0.828 µM | 0.877 µM | 0.22 µM | 0.011 µM | 0.162 µM | 0.155 µM | 0.377 µM | CCC(=O)N1CC[C@H](Oc2ccnc3ccc(-c4ccc(OC)nc4)cc23)C1 | 2.3 |
| 10 µM (≈ 4.03 µg/mL) | 2.6 | 16 | 0.36 µM | 1.38 µM | 0.978 µM | 1.28 µM | 0.386 µM | 0.005 µM | 0.079 µM |  |  | CCC(=O)N1CC[C@H](Oc2ncnc3ccc(-c4cnc(OC)c(C#N)c4)cc23)C1 |  |
| > 1000 µM | 2.6 | 5 | 0.304 µM | 0.21 µM | 0.194 µM | 0.407 µM | 0.126 µM | 0.016 µM | 0.082 µM |  |  | COc1ccc(-c2ccc3ncnc(O[C@H]4CCN(C(C)=O)C4)c3c2)cc1OC |  |
